Measured values taken from patent US11105794B2, “In vitro nephrotoxicity screening assay” (Hoffmann-La Roche Inc., priority 2016, dated 2021).

How the values were obtained:
[1] = test system: PTEC-TERT1 cells; experiment: EGF assay, supernatant of PTEC-TERT1 cells; conditions: for Toxicity grade: from EGF, assay window saline vs toxic reference compound 4-1
Protocol: Prior to treatment with oligonucleotides the PTEC-TERT1 were seeded into collagen I-coated 96-well plates (Corning, 356407) at a density of 40 000 and 20 000 cells/well respectively in PTEC medium and grown until confluence.
Oligonucleotides were dissolved in PBS and added to the cell culture at the given concentration, such as 10, 30 or 100 μM. The total volume of each well was 100 μl. PBS served as vehicle control.
When extra cellular markers, like EGF and KIM-1, were analyzed following the oligonucleotide treatment the medium was collected and stored at −20° C. until further analysis. […] The collected medium was stored at −20° C.
For analysis of human EGF, cell supernatants were thawed on ice, diluted 1:2 and 1:10 in sample dilution buffer (BioRad catalog # M60-009RDPD) and analyzed by Luminex®-based ELISA using human EGF beads (Bio-Plex Pro™ Human Cancer Biomarker Panel 2 EGF Set#171BC603M), or followed by analysis using the Bio-Plex® 200 Systems (BioRad) according to the manufacturer's instructions. Data are reported as mean concentrations and standard deviations of triplicate wells.

[2] = test system: A549 cells; experiment: EGF assay, A549 cells transfected with oligonucleotide; assay type: cell-based, human; conditions: A549, 48 hours after transfection;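 note: values as percent of saline control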
Protocol: (§1) A549 cells (ATCC CCL-185) were cultivated according to the manufacturer's instructions in A549 medium [F-12K Nut Mix (Gibco, 21127-022), 1% penicillin/streptomycin (Gibco: 15140-122), 10% FBS (Gibco 16000-044)].
(§2) Prior to treatment with oligonucleotides the A549 cells were seeded in 96 well plates at 3′000 cells per well in A549 regular medium and grown until 60% confluence. […]
(§3) A549 were cultivated as described in the “Materials and methods” section. At after at 50-60% confluence the oligonucleotides were transfected into the cells using 0.5 μl Lipofectamin (Invitrogen, 11668-019) in 25 μl OptiMEM® (GIBCO 31985062) and 1 ng or 10 ng oligonucleotide in the same volume OptiMEM. The cells were incubated over night at 37° C. The medium was changed using A459 regular medium+10 ng/ml EGF. 48 hours after transfection the medium was collected for EGF measurements and the cells were harvested for ATP measurements.

[3] = test system: A549 cells; experiment: Intracellular ATP assay, A549 cells transfected with oligonucleotide; assay type: cell-based, human; conditions: A549, 48 hours after transfection;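 note: ATP as percent of saline control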
Protocol: as §1, §2
Each sample was tested in triplicate.
as §3

[4] = test system: Primary human hepatocytes; experiment: EGF assay, culture media of primary human hepatocytes; assay type: cell-based; conditions: 10 ng/ml EGF in medium;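 note: values as percent of saline vehicle control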
Protocol: Cryopreserved human hepatocytes were suspended in William's Medium E (WME) without phenol red (Sigma W-1878) supplemented with 10% fetal calf serum, penicillin (100 U/ml), streptomycin (0.1 mg/ml) at a density of approx. 1×10^6 cells/ml and seeded into collagen-coated 96-well plates (Becton Dickinson AG, Allschwil, Switzerland) at a density of 0.4×10^5 cells/well. Cells were pre-cultured for 3 to 4 h allowing for attachment to cell culture plates before start of treatment with oligonucleotides.
Before oligonucleotide treatment the seeding medium was replaced by 90 μl of serum free WME.
The total volume of each well was 100 μl. PBS served as vehicle control.
Human primary hepatocytes were cultivated as described in the “Materials and methods” section with addition of 10 ng/ml of EGF to the medium. At confluence the cells were treated with oligonucleotide as described in the “Materials and methods” section, in concentrations of 10 or 100 μM.
The medium was obtained at day 3, and the EGF level was measured according to the assay described in the “Materials and methods” section.

[5] = PTEC-TERT1, 6 days, 10 μM oligonucleotide (Table 7)
[6] = PTEC-TERT1, 6 days, 30 μM oligonucleotide (Table 7)
[7] = PTEC-TERT1, Day 6, 10 μM (Table 4)
[8] = PTEC-TERT1, Day 6, 30 μM (Table 4)
[9] = PTEC-TERT1, Day 6, 100 μM (Table 4)

Substance	EGF [1, 5] [% saline]	Toxicity grade ([1]; PTEC-TERT1, 6 days, 10 μM)	EGF [1, 6] [% saline]	Toxicity grade ([1]; PTEC-TERT1, 6 days, 30 μM)	EGF [1, 7] [% saline]	EGF [1, 8] [% saline]	EGF [1, 9] [% saline]	further results
ACTgcrtttcrcacrtCTG (antisense ACTGCTTTCCACTCTG; LNA gapmer, stereodefined phosphorothioates, chemistry not fully specified) [Compound 8-3]	869	32	3416	46				
ACTgcstttcscacstCTG (antisense ACTGCTTTCCACTCTG; LNA gapmer, stereodefined phosphorothioates, chemistry not fully specified) [Compound 8-2]	5723	219	25199	347				
ACTgctttccactCTG (ACTGCTTTCCACTCTG; chemistry not given here) [Compound 8-1]	8412	323	15126	208	1153	1359	1545	EGF ([2]; 1 ng oligonucleotide): 140 % saline; EGF ([2]; 10 ng oligonucleotide): 233 % saline; ATP ([3]; 1 ng oligonucleotide): 101 % saline; ATP ([3]; 10 ng oligonucleotide): 58 % saline
ATTgcattgtttcCGT (ATTGCATTGTTTCCGT; chemistry not given here) [Compound 18-1]					223	203	290	
CAAaggaaacacaCAT (CAAAGGAAACACACAT; chemistry not given here) [Compound 6-1]					78	90	118	
CAAatgctgaaacTAT (CAAATGCTGAAACTAT; chemistry not given here) [Compound 7-1]					37	40	67	
CACattccttgctCTG (CACATTCCTTGCTCTG; chemistry not given here) [Compound 10-1]	305	11	1283	17	73	330	783	EGF ([4]; day 3, 10 μM): 145 % saline; EGF ([4]; day 3, 100 μM): 574 % saline
CACattrccttrgctrCTrG (antisense CACATTCCTTGCTCTG; LNA gapmer, stereodefined phosphorothioates, chemistry not fully specified) [Compound 10-3]	248	9	1740	23				
CACattrcrcttrgrctCTG (antisense CACATTCCTTGCTCTG; LNA gapmer, stereodefined phosphorothioates, chemistry not fully specified) [Compound 10-5]	369	13	1069	14				
CACattsccttsgctsCTsG (antisense CACATTCCTTGCTCTG; LNA gapmer, stereodefined phosphorothioates, chemistry not fully specified) [Compound 10-2]	93	3	156	1				
CACattscscttsgsctCTG (antisense CACATTCCTTGCTCTG; LNA gapmer, stereodefined phosphorothioates, chemistry not fully specified) [Compound 10-4]	60	1	157	1				
CATtgcattgttTCCG (CATTGCATTGTTTCCG; chemistry not given here) [Compound 19-2]					370	606	770	
CATtgcattgtttCCG (CATTGCATTGTTTCCG; chemistry not given here) [Compound 19-1]					317	310	413	
CGTttgtgctcgATA (CGTTTGTGCTCGATA; chemistry not given here) [Compound 17-1]					342	550	693	
CGTttgtgctcgaTAA (CGTTTGTGCTCGATAA; chemistry not given here) [Compound 16-1]					394	509	707	
CTAtgtgttccTGT (CTATGTGTTCCTGT; chemistry not given here) [Compound 15-1]					38	76	234	
GCCtcccagttccTTT (GCCTCCCAGTTCCTTT; chemistry not given here) [Compound 9-1]					220	284	1593	
GTCagaaacaaccACC (GTCAGAAACAACCACC; chemistry not given here) [Compound 14-1]								EGF ([4]; day 3, 10 μM): 139 % saline; EGF ([4]; day 3, 100 μM): 220 % saline
TAAggcaatcaagGTA (TAAGGCAATCAAGGTA; chemistry not given here) [Compound 5-1]								EGF ([1]; PTEC-TERT1, Day 3, 11 μM (Table 3)): 174 % saline; EGF ([1]; PTEC-TERT1, Day 3, 33 μM (Table 3)): 222 % saline; EGF ([1]; PTEC-TERT1, Day 3, 100 μM (Table 3)): 182 % saline; EGF ([1]; PTEC-TERT1, Day 7, 11 μM (Table 3)): 158 % saline; EGF ([1]; PTEC-TERT1, Day 7, 33 μM (Table 3)): 249 % saline; EGF ([1]; PTEC-TERT1, Day 7, 100 μM (Table 3)): 754 % saline; EGF ([1]; PTEC-TERT1, Day 10, 11 μM (Table 3)): 54 % saline; EGF ([1]; PTEC-TERT1, Day 10, 33 μM (Table 3)): 210 % saline; EGF ([1]; PTEC-TERT1, Day 10, 100 μM (Table 3)): 720 % saline
TGCtcaacatcAAG (TGCTCAACATCAAG; chemistry not given here) [Compound 11-1]					38	127	371	EGF ([4]; day 3, 10 μM): 184 % saline; EGF ([4]; day 3, 100 μM): 458 % saline
TTAcacttgacCCA (TTACACTTGACCCA; chemistry not given here) [Compound 12-1]					19	27	71	
TTTacacttgaCCC (TTTACACTTGACCC; chemistry not given here) [Compound 13-1]					27	29	39	
